Data: ChEMBL document CHEMBL1817580, “Chemical modifications of resveratrol for improved protein kinase C alpha activity” (Bioorg Med Chem, 2011)
Calls of active or inactive are those of the source. The calls are words filed in the database; no cut-off is given here.

Key:
[1] = target: Protein kinase C alpha type (Homo sapiens) (UniProt P17252); assay: Inhibition of TPA-induced membrane translocation of PKCalpha expressed in HEK293 cells assessed as protein found in membrane fraction at 100 uM after 2 hrs by Western blotting relative to TPA; assay type: cell-based; parameters: scale not given: the % may be the effect or the level left
[2] = target: Protein kinase C alpha type (Homo sapiens) (UniProt P17252); assay: Inhibition of membrane translocation of PKCalpha expressed in HEK293 cells assessed as increase of protein found in membrane fraction at 100 uM after 2 hrs by Western blotting relative to resveratrol; assay type: cell-based; parameters: scale not given: the % may be the effect or the level left
[3] = target: Protein kinase C alpha type (Homo sapiens) (UniProt P17252); assay: Binding affinity to recombinant C1B domain of PKCalpha expressed in Escherichia coli BL21 (DE3) after 45 mins by fluorescence quenching assay
HEK293 [4] = assay: Cytotoxicity against HEK293 cells assessed as increase in cell viability at 100 uM after 48 hrs by MTT assay relative to resveratrol; assay type: cell-based; conditions: human, hek293, 48 h
HEK293 [5] = assay: Cytotoxicity against HEK293 cells assessed as decrease in cell viability at 100 uM after 48 hrs by MTT assay relative to control; assay type: cell-based; conditions: human, hek293, 48 h
[6] = target: Protein kinase C alpha type (Homo sapiens) (UniProt P17252); assay: Inhibition of membrane translocation of PKCalpha expressed in HEK293 cells at 100 uM after 2 hrs by Western blotting; assay type: cell-based

Row | SMILES | Activity [1] [%] | Activity [2] [%] | Activity [3] | fold change (FC) (HEK293 [4]) | Activity (HEK293 [4]) [%] | Activity (HEK293 [5]) [%] | inhibition [6] [%]
1 | COc1ccc(/C=C/c2cc(OC)cc(OC)c2)cc1 [TRISMETHOXYRESVERATROL] | 31.9 | 20 | Active | 4 | – | – | –
2 | COc1cc(/C=C/c2cc(OC)c(OC)c(OC)c2)cc(OC)c1OC | 44.8 | 20 | – | 2 | – | – | –
3 | CCCCCCCCCCCCCCCCOc1ccc(/C=C/c2cc(O)cc(O)c2)cc1 | 79.8 | 20 | Active | 2 | – | – | –
4 | CCCCCCCCOc1ccc(/C=C/c2cc(O)cc(O)c2)cc1 | 85.2 | 20 | – | 4 | – | – | –
5 | CCCCCCCCCCCCCCCCOc1cc(/C=C/c2ccc(O)cc2)cc(OCCCCCCCCCCCCCCCC)c1 | 78.8 | 20 | – | 2 | – | – | –
6 | CCCCCCCCOc1cc(/C=C/c2ccc(O)cc2)cc(OCCCCCCCC)c1 | 65.7 | 20 | – | 4 | – | – | –
7 | Oc1cc(/C=C/c2cc(O)c(O)c(O)c2)cc(O)c1O | 29.8 | 20 | Active | – | 25 | – | –
8 | Oc1ccc(/C=C/c2cc(O)cc(O)c2)cc1 [RESVERATROL] | 60 | – | Active | – | – | 20 | 5
9 | CCCCCCCCCCCCCCCCOc1c(O)cc(/C=C/c2cc(O)c(O)c(O)c2)cc1O | 68.3 | 20 | – | – | 25 | – | –
